The record followed here is BindingDB's records for PubMed 1586393 (U. 109, 1992).

SMILES strings stand for the structures.

For this experiment, the target named is D(3) dopamine receptor (Homo sapiens, UniProt P35462).
Chain of D(3) dopamine receptor (P35462 as listed by the source): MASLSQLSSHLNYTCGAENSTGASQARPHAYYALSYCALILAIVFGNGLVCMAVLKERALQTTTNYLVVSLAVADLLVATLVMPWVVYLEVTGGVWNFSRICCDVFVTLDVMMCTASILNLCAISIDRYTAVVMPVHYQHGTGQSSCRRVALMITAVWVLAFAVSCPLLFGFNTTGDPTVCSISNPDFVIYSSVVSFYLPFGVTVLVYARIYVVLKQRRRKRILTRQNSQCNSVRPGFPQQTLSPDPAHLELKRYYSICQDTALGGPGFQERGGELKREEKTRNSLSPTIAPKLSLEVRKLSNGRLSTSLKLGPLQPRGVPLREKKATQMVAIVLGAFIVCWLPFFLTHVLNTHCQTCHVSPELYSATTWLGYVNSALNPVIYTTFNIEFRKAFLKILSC
The term Ki denotes the dissociation constant of the complex between target and ligand, obtained from inhibition or displacement. Read a high Ki as weaker binding. Regarding `NC(=O)C1(N2CCCCC2)CCN(CCCN2c3ccccc3CCc3ccccc32)CC1` [CAS_5942-95-0], the Ki came out at 15 nM. That is a double-digit nanomolar value.

As for `CN(C)S(=O)(=O)c1ccc2c(c1)N(CCCN1CCC(CCO)CC1)c1ccccc1S2` [CAS_39860-99-6], the inhibitory constant (Ki) turned out to be 0.28 nM.

Molecule `CCCN[C@@H]1CCc2c(OC)cccc2[C@@H]1C` [CAS_85379-09-5] returned an inhibitory constant (Ki) of 139 nM. This Ki is about 500-fold higher than that of the molecule before.

With `CCCN(CCC)C1C=Cc2c(OC)cccc2C1C` (configuration not stated) [CAS_5311190], the affinity corresponds to a Ki of 11 nM. This Ki lies about 13-fold lower than the previous one.

Molecule `Nc1nc2c(ncn2[C@@H]2O[C@H](COP(=O)(O)OP(=O)(O)NP(=O)(O)O)[C@@H](O)[C@H]2O)c(=O)[nH]1` [Guanylyl imidodiphosphate] registered a Ki of 34 nM. Compared with the last molecule, the Ki is about 3.1-fold higher.

The molecule `CN1CCN(CCCN2c3ccccc3Sc3ccc(S(=O)(=O)N(C)C)cc32)CC1` [NSC_92178] displayed a Ki of 1.2 nM.

`CCS(=O)(=O)c1cc(C(=O)NCC2CCCN2CC2CC2)c(OC)cc1I` (configuration not stated) [NSC_122245] came in with an inhibitory constant (Ki) of 1.3 nM.
